# ChEMBL document CHEMBL4819014, “Design, synthesis and biological evaluation of imidazole and triazole-based carbamates as novel aromatase inhibitors” (Eur J Med Chem, 2021)
# Active and inactive are the calls of the source. The calls are words filed in the database; no cut-off is given here.
# How the values were obtained:
# [1] = molecular target: T1, CYP19A (aromatase) (Homo sapiens, UniProt P11511); test: Inhibition of human CYP19A at 1 uM measured every 1 min for 60 mins by flourimetric assay
# T1 sequence (P11511 whole entry): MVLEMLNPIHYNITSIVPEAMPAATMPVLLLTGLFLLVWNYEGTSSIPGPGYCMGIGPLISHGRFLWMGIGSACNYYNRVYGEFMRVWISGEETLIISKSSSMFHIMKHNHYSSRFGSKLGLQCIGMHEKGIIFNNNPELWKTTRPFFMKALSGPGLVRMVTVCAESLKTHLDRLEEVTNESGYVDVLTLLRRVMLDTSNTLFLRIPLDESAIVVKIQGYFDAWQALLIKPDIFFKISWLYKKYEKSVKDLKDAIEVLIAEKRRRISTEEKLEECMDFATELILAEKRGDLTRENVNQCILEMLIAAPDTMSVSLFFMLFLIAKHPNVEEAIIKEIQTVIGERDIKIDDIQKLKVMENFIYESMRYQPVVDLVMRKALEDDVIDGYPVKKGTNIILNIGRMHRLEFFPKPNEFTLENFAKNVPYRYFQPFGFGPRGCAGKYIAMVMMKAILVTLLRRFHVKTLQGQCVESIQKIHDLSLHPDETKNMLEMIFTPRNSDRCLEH
# [2] = test system: MCF7; test: Induction of cell cycle arrest in human MCF7 cells assessed as accumulation of cells in S phase measured after 24 hrs by PI staining based flow cytometry method; type: functional; conditions: dose 10-250 µM
# [3] = test system: MCF7; test: Cytotoxicity against human MCF7 cells assessed as metabolic activity at 10 uM measured after 24 hrs by MTT assay; type: functional
# [4] = test system: MCF7; test: Cytotoxicity against human MCF7 cells assessed as lactate dehydrogenase activity measured after 24 hrs by microplate reader method relative to control; type: functional
# [5] = molecular target: T2, Aromatase (Homo sapiens, UniProt P11511); test: Inhibition of human CYP19A measured every 1 min for 60 mins by flourimetric assay
# T2 sequence (P11511 whole entry): T1 sequence (P11511 whole entry)
# [6] = test system: MCF7; test: Cytotoxicity against human MCF7 cells assessed as lactate dehydrogenase activity at 250 uM measured after 24 hrs by microplate reader method relative to control; type: functional
# [7] = test system: MCF7; test: Cytotoxicity against human MCF7 cells assessed as metabolic activity at 250 uM measured after 48 hrs by MTT assay; type: functional
# [8] = test system: MCF7; test: Cytotoxicity against human MCF7 cells assessed as metabolic activity at 10 uM measured after 72 hrs by MTT assay; type: functional
# [9] = test system: MCF7; test: Cytotoxicity against human MCF7 cells assessed as metabolic activity at 100 uM measured after 48 hrs by MTT assay; type: functional
# [10] = test system: MCF7; test: Cytotoxicity against human MCF7 cells assessed as metabolic activity at 50 uM measured after 72 hrs by MTT assay; type: functional
# [11] = test system: MCF7; test: Cytotoxicity against human MCF7 cells assessed as metabolic activity at 25 uM measured after 72 hrs by MTT assay; type: functional
# [12] = test system: MCF7; test: Induction of cell cycle arrest in human MCF7 cells assessed as decrease in accumulation of cells in G1 phase at 100 to 250 uM measured after 24 hrs by PI staining based flow cytometry method; type: functional; conditions: dose 100-250 µM
# [13] = test system: MCF7; test: Cytotoxicity against human MCF7 cells assessed as metabolic activity at 10 to 250 uM measured after 24 hrs by MTT assay; type: functional; conditions: dose 10-250 µM
# [14] = test system: MCF7; test: Induction of cell cycle arrest in human MCF7 cells assessed as accumulation of cells in G2/M phase at 100 to 250 uM measured after 24 hrs by PI staining based flow cytometry method; type: functional; conditions: dose 100-250 µM
# [15] = test system: MCF7; test: Cytotoxicity against human MCF7 cells assessed as metabolic activity measured after 48 hrs by MTT assay; type: functional, cell-based; conditions: dose 10-250 µM
structure (smiles),measurement,setting,value
O=C(Nc1ccccc1)OC(COc1ccccc1)Cn1ccnc1 (stereo not drawn),"inhibition at 1 h, 1 µM",[1],27%
COc1ccc(OCC(Cn2cncn2)OC(=O)Nc2ccc(Cl)cc2)cc1 (stereo not drawn),"inhibition at 1 h, 1 µM",[1],49%
COc1ccc(NC(=O)OC(COc2ccccc2)Cn2ccnc2)cc1 (stereo not drawn),"inhibition at 1 h, 1 µM",[1],61%
O=C(NCc1ccccc1)OC(Cn1ccnc1)c1ccccc1 (stereo not drawn),Activity,[2],Dose-Dependent Effect
same,Activity,[3],43.67%
same,fold change (FC),[4],4
same,IC50,[5],820 nM
same,fold change (FC),[6],4.8
same,Activity,[7],30.75%
same,"inhibition at 1 h, 1 µM",[1],81%
same,Activity,[8],50.16%
same,Activity,[9],10.39%
same,Activity,[10],46.7%
same,Activity,[11],55.06%
O=C(Nc1ccc(Cl)cc1)OC(COc1ccccc1)Cn1ccnc1 (stereo not drawn),Activity,[2],Dose-Dependent Effect
same,fold change (FC),[4],4
same,IC50,[5],860 nM
same,fold change (FC),[6],4.8
same,Activity,[12],Active
same,"inhibition at 1 h, 1 µM",[1],72%
same,Activity,[13],50%
same,Activity,[14],Active
same,Activity,[15],Dose-Dependent Effect
same,Activity,[10],25.18%
O=C(Nc1ccccc1)OC(Cn1ccnc1)c1ccccc1 (stereo not drawn),"inhibition at 1 h, 1 µM",[1],61%
COc1ccc(NC(=O)OC(COc2ccccc2)Cn2ccnc2)c(OC)c1 (stereo not drawn),"inhibition at 1 h, 1 µM",[1],25%
O=C(Nc1ccc(Cl)cc1)OC(Cn1ccnc1)c1ccccc1 (stereo not drawn),"inhibition at 1 h, 1 µM",[1],62%
O=C(Nc1ccccc1)OC(COc1ccc(Cl)cc1)Cn1cncn1 (stereo not drawn),"inhibition at 1 h, 1 µM",[1],46%
